Holding throughout (assay type): functional
Assay [1] deals with Mycobacterium tuberculosis. Kind of assay: Antimicrobial activity against isoniazid and rifampin resistant Mycobacterium tuberculosis assessed as ratio of MIC combination/MIC compound alone after 21 days at 37 degC in presence of 1-(4-(4-(1H-pyrrol-1-yl)phenyl)piperazin-1-yl)-4-(5-(3,5-difluorobenzyl)-1-(2-fluorobenzyl)-2-oxo-1,2-dihydropyridin-3-yl)-2-hydroxybut-2-ene-1,4-dione by agar dilution drug susceptibility assay. (Agar dilution tests growth on a series of plates holding different concentrations.)

Assay [2] has as its system Mycobacterium tuberculosis. Kind of assay: Antimicrobial activity against isoniazid and rifampin resistant Mycobacterium tuberculosis assessed as reduction in colony forming unit after 21 days at 37 degC in presence of 1-(4-(4-(1H-pyrrol-1-yl)phenyl)piperazin-1-yl)-4-(5-(3,5-difluorobenzyl)-1-(2-fluorobenzyl)-2-oxo-1,2-dihydropyridin-3-yl)-2-hydroxybut-2-ene-1,4-dione by agar dilution drug susceptibility assay. Set-up: scale not given: the % may be the effect or the level left.

Assay [3] has as its system Mycobacterium tuberculosis. Kind of assay: Antimicrobial activity against isoniazid and rifampin resistant Mycobacterium tuberculosis after 21 days at 37 degC in presence of 1-(4-(4-(1H-pyrrol-1-yl)phenyl)piperazin-1-yl)-4-(5-(3,5-difluorobenzyl)-1-(2-fluorobenzyl)-2-oxo-1,2-dihydropyridin-3-yl)-2-hydroxybut-2-ene-1,4-dione by agar dilution drug susceptibility assay.
Assay [4] relates to Mycobacterium tuberculosis. Kind of assay: Antimicrobial activity against isoniazid and rifampin resistant Mycobacterium tuberculosis after 21 days at 37 degC by agar dilution drug susceptibility assay.
Assay [5] concerns Mycobacterium tuberculosis. Kind of assay: Antimicrobial activity against isoniazid and rifampin resistant Mycobacterium tuberculosis after 21 days at 37 degC in presence of PA-824 by agar dilution drug susceptibility assay. Conditions: 504 h.
The test system of assay [6] is Mycobacterium tuberculosis. Kind of assay: Antimicrobial activity against isoniazid and rifampin resistant Mycobacterium tuberculosis assessed as reduction in colony forming unit after 21 days at 37 degC in presence of PA-824 by agar dilution drug susceptibility assay. Set-up: scale not given: the % may be the effect or the level left.
For assay [7], the system named is Mycobacterium tuberculosis. Kind of assay: Antimicrobial activity against isoniazid and rifampin resistant Mycobacterium tuberculosis assessed as ratio of MIC combination/MIC compound alone after 21 days at 37 degC in presence of PA-824 by agar dilution drug susceptibility assay.

Here are results for six compounds from ChEMBL document CHEMBL3397011, “A novel molecule with notable activity against multi-drug resistant tuberculosis” (Bioorg Med Chem Lett, 2015).

In brackets after ≈: the same amount, converted by molar mass. Activity calls are given as the source filed them.

For orientation: MIC means the smallest concentration in the dilution series that meets the test's criterion for growth inhibition. As for `O=[N+]([O-])c1cn2c(n1)OC[C@@H](OCc1ccc(OC(F)(F)F)cc1)C2` [PRETOMANID], in assay [1], the “fractional inhibitory concentration index (FICI)” value was 0.246. Moreover, the Activity in assay [2] is greater than 99%. The MIC in assay [3] is 0.031 µg/mL; in assay [4] (504 h), 0.126 µg/mL (≈ 0.351 µM).

The compound `O=C(/C=C(\O)C(=O)N1CCN(c2ccc(-n3cccn3)cc2)CC1)c1cc(Cc2cc(F)cc(F)c2)cn(Cc2ccccc2F)c1=O` returned a minimal inhibitory concentration (MIC) in assay [4] (504 h) of 3.12 µg/mL (≈ 4.78 µM).

Consider `CN[C@@H]1[C@H](O[C@H]2[C@H](O[C@H]3[C@H](O)[C@@H](O)[C@H](N=C(N)N)[C@@H](O)[C@@H]3N=C(N)N)O[C@@H](C)[C@]2(O)C=O)O[C@@H](CO)[C@H](O)[C@H]1O`, for which, in assay [4], the MIC entry is “Active”.

As for `O=C(/C=C(\O)C(=O)N1CCN(c2ccc(-n3ccnc3)cc2)CC1)c1cc(Cc2cc(F)cc(F)c2)cn(Cc2ccccc2F)c1=O`, the MIC in assay [4] (504 h) was determined as 6.25 µg/mL (≈ 9.56 µM).

In the case of `O=C(/C=C(\O)C(=O)N1CCN(c2ccc(-n3cccc3)cc2)CC1)c1cc(Cc2ccccc2)cn(Cc2ccccc2)c1=O`, the MIC in assay [4] (504 h) is 3.12 µg/mL (≈ 5.22 µM).

Consider `O=C(/C=C(\O)C(=O)N1CCN(c2ccc(-n3cccc3)cc2)CC1)c1cc(Cc2cc(F)cc(F)c2)cn(Cc2ccccc2F)c1=O`, for which the MIC in assay [5] turned out to be 0.195 µg/mL; in assay [4] (504 h), 1.56 µg/mL (≈ 2.39 µM). Moreover, in assay [6], the Activity is given as greater than 99%. Besides, the “fractional inhibitory concentration index (FICI)” value in assay [7] is listed as 0.125.
